Results: patent US20250230226A1, “PLXDC1/PLXDC2 ACTIVATORS AND THEIR USE IN THE TREATMENT OF BLOOD VESSEL DISORDERS” (THE REGENTS OF THE UNIVERSITY OF CALIFORNIA, priority 2019, published 2025)

Experiments:
[1] = test system: CT26.CL25 colon cancer tumor endothelial cells; assay: Colon CT26 ex vivo model of tumor angiogenesis; format: cell-based, mouse
Description: An ex vivo tumor angiogenesis model was developed to test the efficacy of anti-cancer candidate agents. The following protocol describes the Ex Vivo Tumor Angiogenesis Model.
• 1. The day before the experiment, all necessary tools were sprayed with 70% ethanol and sterilized under UV light overnight, including blade, dissecting and micro-dissecting scissors and […]. 24-well dishes were placed at 4° C. to pre-chill plates and Matrigel was thawed, 24 hours before tumor dissection. • 2. 70% ethanol was sprayed on working bench. Two sterile petri dishes were prepared with 10 ml sterile PBS. The following steps 3 and 4 are necessary for mouse tumor models. For fresh human tumor, steps 3 and 4 are skipped. • 3. The tumor-bearing mice were euthanized. 70% ethanol was sprayed on the mouse and the tumor was removed using sterilized dissecting tools (avoid the fur). The tumor was rinsed in petri dish with sterile PBS to remove ethanol and fur. The tumor was transferred to a new petri dish with PBS for dissection. The dish is placed on ice. • 4. Pre-chilled sterile pipet tips were used to seed regular Matrigel in 24 well plates on ice. Matrigel (30 μl) was dropped in the middle of each well without touching the edge of the well (avoid introducing bubbles if possible). • 5. The tumor was cut in halves using the sterile blade. Healthy tumor tissue that is not necrotic and is within the tumor capsule was identified and isolated. The healthy tumor tissue was cut into small pieces. For instance, a suitable size for the tumor tissue is 0.5 mm (H)×0.5 mm (L)×0.3 mm (D) with a total volume of 0.075 mm^3. • 6. Each tumor piece was gently transferred and embedded in the Matrigel drop in the 24-well plate. The embedded piece was placed in the bottom and middle of each Matrigel drop. The plate was kept on ice all the time. • 7. After seeding the tumor pieces, plates were incubated in a 37° C. cell culture incubator without medium for 10 minutes in order for the Matrigel to solidify. • 8. Endothelial Growth Medium (0.5 ml) was added to each well and incubated at 37° C. with 5% CO2. Treatment was not added until the new endothelial cells was grown out of the tumor or were larger than 3 mm in diameter. This usually takes 4 days for the LL2 Lewis lung cancer model and 7 days for the CT26 colon cancer model. For human tumor models, the growth time is typically 2-3 weeks, depending on the tumor type. Media was changed every 4 days during prolonged culture. Typically, when the tumor tissue grows to 2 mm in diameter, it was good for drug testing. A size of about 3 mm in diameter can make visualization easier. • 9. When the assay was ready to be analyzed for cell death (e.g., 48 hours after drug addition), the dye mixture was prepared by mixing 6 μl of green dye to stain live cells (5 mg/ml Fluorescein diacetate or FDA in DMSO) with 30 μl of red dye (2.5 mg/ml Propidium iodide or PI in PBS) to stain dead cells in an Eppendorf tube. The FDA dye needs to be stored frozen in a −20° C. freezer because it has a labile ester bond. • 10. 1 μl of the dye mixture was added to each well of the 24-well dish. It is usually preferred to do one 24-well dish at a time given the amount of time needed to take pictures (the green dye is not as stable in the cells in the long term). • 11. The dish was gently rocked a few times to mix the dye with the media in the wells and incubate the dish at 37° C. for 10 min (too long incubation can make the green signal too intense). • 12. Each well was washed with 0.5 ml of sterile PBS and then 0.5 ml of phenol red free SFM was added to each well. Alternatively 0.5 ml of regular Endothelial Cell Growth Media can be added to each well if this well needs to be continuously maintained after the experiment. • 13. An inverted microscope using the 2× objective lens was used to observe morphological changes in the experimental wells. • 14. […]

[2] = test system: LL/2 lung cancer tumor endothelial cells; assay: Lung LL2 ex vivo model of tumor angiogenesis; format: cell-based, mouse; settings: for Cell death / 48 hrs (morphology observations): 40 μm; for Cell death: drug treatment for two days, ratio of red area to total endothelial cell area; for 48 hrs (morphology observations): LL/2 tumor endothelial cells
Outline: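 Live/dead imaging with FDA and PI, taken e.g. 48 h post-drug under fixed channel settings, measures treatment effects on endothelial cells sprouting from Lewis lung tumor explants. Explants were seeded in Matrigel drops and grown ~4 days in endothelial growth medium, 37 °C, 5% CO2, before dosing.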

[3] = Mus musculus, Endothelial cell, 48 h, read-out: Cell death

Structure (SMILES) | 48 hrs (morphology observations after 48 hours) ([1]; Conc. 40 μm) | cytotoxicity at 40 µM [1, 3] | also measured
CCOC(=O)c1ccc2ncc(S(=O)(=O)c3ccc(CC)cc3)c(N3CCC(N4CCC(O)CC4)CC3)c2c1 [Compound 130] | 0 | 40% | 
CCc1ccc(S(=O)(=O)c2cnc3ccc([N+](=O)[O-])cc3c2N2CCC(O)CC2)cc1 [Compound 75] | 0 | 0% | Cell death [2]: 80%
COc1ccc(S(=O)(=O)c2cnc3cc(OC)c(OC)cc3c2-n2cncn2)cc1OC [Compound 96] |  |  | 48 hrs (morphology observations after 48 hours) ([1]; Conc. 10 μm): 0; cytotoxicity at 10 µM [1, 3]: 0%; cytotoxicity at 20 µM [2, 3]: 0%
CCCCCCCOc1ccc(S(=O)(=O)c2cnc3ccc(SC)cc3c2N2CCC(N3CCCCC3)CC2)cc1 [Compound 219] | *** (100% of endothelial cells vesicularize in cell shape) | 90% | 48 hrs (morphology observations) [2]: **** (100% of endothelial cells vesicularize in cell shape and look flattened in morphology (indicating disintegration of the cell body)); Cell death [2]: 60%
CCCCN(CCCC)c1c(S(=O)(=O)c2ccc(OC)c(OC)c2)cnc2ccc(OC(F)(F)F)cc12 [Compound 74] | *** (100% of endothelial cells vesicularize in cell shape) | 100% | 48 hrs (morphology observations) [2]: *** (more than 50% but less than 100% of endothelial cells vesicularize in cell shape); Cell death [2]: 60%
CCCCOc1ccc(S(=O)(=O)c2cnc3ccc(C(=O)OCC)cc3c2N2CCC(N3CCOCC3)CC2)cc1 [Compound 212] | 0 | 10% | Cell death [2]: 50%
CCOC(=O)c1ccc2ncc(S(=O)(=O)c3ccc(OC)cc3)c(N3CCC(N4CCCCC4)CC3)c2c1 [Compound 136] | 0 | 30% | 
CCOC(=O)c1ccc2ncc(S(=O)(=O)c3ccc(OC)cc3)c(N3CCCC(O)C3)c2c1 (stereo not drawn) [Compound 137] | 0 | 40% | 
CN1CCCN(c2c(S(=O)(=O)c3ccc([N+](=O)[O-])cc3)cnc3ccc(OC(F)(F)F)cc23)CC1 [Compound 60] | 0 | 5% | 
CCOC(=O)c1ccc2ncc(S(=O)(=O)c3ccc(CC)cc3)c(N3CCCC(O)C3)c2c1 (stereo not drawn) [Compound 135] | 0 | 30% | 
CCCCN(CCCC)c1c(S(=O)(=O)c2ccc(OC)c(OC)c2)cnc2ccc(SC)cc12 [Compound 124] | 0 | 20% | 
CCc1ccc(S(=O)(=O)c2cnc3ccc(OC(F)(F)F)cc3c2N2CCC(O)(c3ccc(OC)cc3)CC2)cc1 [Compound 145] | 0 | 30% | 
COc1ccc(S(=O)(=O)c2cnc3ccc(SC)cc3c2N2CCC(N3CCC(O)CC3)CC2)cc1OC [Compound 153] | * (50% or less of cells vesicularize in cell shape) | 20% | 
CCc1ccc(C2(O)CCN(c3c(S(=O)(=O)c4ccc(OC)cc4)cnc4ccc(OC(F)(F)F)cc34)CC2)cc1 [Compound 129] | 0 | 0% | 
CCOC(=O)c1ccc2ncc(S(=O)(=O)c3ccc(CC)cc3)c(N3CCC(O)(c4cccc(OC)c4)CC3)c2c1 [Compound 149] | * (50% or less of cells vesicularize in cell shape) | 20% | 
CCc1ccc(S(=O)(=O)c2cnc3ccc(OC(F)(F)F)cc3c2N2CCC(O)(c3ccc4c(c3)OCO4)CC2)cc1 [Compound 147] | 0 | 0% | 
CCOC(=O)c1ccc2ncc(S(=O)(=O)c3ccc(CC)cc3)c(N3CCCN(CCN(CC)CC)CC3)c2c1 [Compound 131] | ** (more than 50% but less than 100% of endothelial cells vesicularize in cell shape) | 50% | 
CCOC(=O)c1ccc2ncc(S(=O)(=O)c3ccc(OC)cc3)c(N3CCC(N4CCC(O)CC4)CC3)c2c1 [Compound 138] | 0 | 20% | 
COc1ccc(S(=O)(=O)c2cnc3ccc(OC(F)(F)F)cc3c2N2CCC(O)(c3cccc(OC)c3)CC2)cc1 [Compound 146] | 0 | 0% | 
CCOC(=O)c1ccc2ncc(S(=O)(=O)c3ccc(CC)cc3)c(N3CCC(OCCN(CC)CC)CC3)c2c1 [Compound 132] | * (50% or less of cells vesicularize in cell shape) | 40% | 
CCc1ccc(S(=O)(=O)c2cnc3ccc(OC(F)(F)F)cc3c2N2CCC(O)(c3cccc(OC)c3)CC2)cc1 [Compound 150] | 0 | 10% | 
CCCCOc1ccc2ncc(S(=O)(=O)c3ccc(OC)c(OC)c3)c(N(CC)CC)c2c1 [Compound 123] | 0 | 20% | 
CCOC(=O)c1ccc2ncc(S(=O)(=O)c3ccc(OC)cc3)c(N3CCCN(C)CC3)c2c1 [Compound 144] | 0 | 30% | 
CCOC(=O)c1ccc2ncc(S(=O)(=O)c3ccc(CC)cc3)c(N3CCC(O)(c4ccc(CC)cc4)CC3)c2c1 [Compound 128] | 0 | 10% | 
CCOC(=O)c1ccc2ncc(S(=O)(=O)c3ccc(OC)cc3)c(N3CCCN(CCN(CC)CC)CC3)c2c1 [Compound 139] | 0 | 40% | 
CCOC(=O)c1ccc2ncc(S(=O)(=O)c3ccc(CC)cc3)c(N3CCC(O)(c4ccc(OC)cc4)CC3)c2c1 [Compound 148] | 0 | 0% | 
CCOC(=O)c1ccc2ncc(S(=O)(=O)c3ccc(OC)cc3)c(N3CCC(OCCN(CC)CC)CC3)c2c1 [Compound 140] | ** (more than 50% but less than 100% of endothelial cells vesicularize in cell shape) | 60% | 
CCCCOc1ccc(S(=O)(=O)c2cnc3ccc(SC)cc3c2N2CCCN(CCN3CCCC3)CC2)cc1 [Compound 207] | **** (100% of endothelial cells vesicularize in cell shape and look flattened in morphology (indicating disintegration of the cell body)) | 100% | 
